Results: the NIST ThermoML archive (doi:10.1021/je800157v)
Numbers after ± are expanded uncertainties.

Experiment: xn = mol fraction of the nth substance listed
Conditions: 101 kPa, Liquid

CCC(C)O (stereo unspecified) [butan-2-ol] + c1ccccc1
mass density [kg/m3]
Conditions | 288.15 K | 293.15 K | 298.15 K | 303.15 K | 308.15 K | 313.15 K
x1 = 0.0511 | 879.01 ± 0.32 | 873.67 ± 0.33 | 868.33 ± 0.33 | 862.98 ± 0.34 | 857.61 ± 0.35 | 852.24 ± 0.36
x1 = 0.0995 | 874.6 ± 0.33 | 869.29 ± 0.33 | 863.96 ± 0.34 | 858.62 ± 0.35 | 853.25 ± 0.36 | 847.89 ± 0.37
x1 = 0.1508 | 870.04 ± 0.34 | 864.77 ± 0.34 | 859.48 ± 0.35 | 854.17 ± 0.36 | 848.83 ± 0.37 | 843.48 ± 0.38
x1 = 0.2013 | 865.76 ± 0.35 | 860.54 ± 0.35 | 855.3 ± 0.36 | 850.02 ± 0.37 | 844.72 ± 0.38 | 839.39 ± 0.39
x1 = 0.2482 | 861.91 ± 0.36 | 856.74 ± 0.36 | 851.54 ± 0.37 | 846.3 ± 0.38 | 841.03 ± 0.39 | 835.75 ± 0.4
x1 = 0.2999 | 857.8 ± 0.37 | 852.69 ± 0.37 | 847.54 ± 0.38 | 842.35 ± 0.39 | 837.13 ± 0.4 | 831.88 ± 0.41
x1 = 0.3486 | 854.03 ± 0.38 | 848.96 ± 0.38 | 843.86 ± 0.39 | 838.72 ± 0.4 | 833.54 ± 0.41 | 828.34 ± 0.42
x1 = 0.3995 | 850.21 ± 0.39 | 845.2 ± 0.4 | 840.14 ± 0.4 | 835.05 ± 0.41 | 829.92 ± 0.42 | 824.76 ± 0.43
x1 = 0.4509 | 846.44 ± 0.4 | 841.48 ± 0.41 | 836.49 ± 0.42 | 831.44 ± 0.42 | 826.35 ± 0.43 | 821.21 ± 0.44
x1 = 0.5003 | 842.93 ± 0.41 | 838.02 ± 0.42 | 833.08 ± 0.43 | 828.08 ± 0.43 | 823.04 ± 0.44 | 817.96 ± 0.45
x1 = 0.5498 | 839.48 ± 0.42 | 834.64 ± 0.43 | 829.75 ± 0.44 | 824.82 ± 0.45 | 819.82 ± 0.45 | 814.8 ± 0.46
x1 = 0.5953 | 836.41 ± 0.44 | 831.62 ± 0.44 | 826.79 ± 0.45 | 821.91 ± 0.46 | 816.96 ± 0.46 | 811.96 ± 0.47
x1 = 0.6487 | 832.84 ± 0.45 | 828.13 ± 0.46 | 823.37 ± 0.46 | 818.56 ± 0.47 | 813.68 ± 0.48 | 808.75 ± 0.48
x1 = 0.7006 | 829.46 ± 0.46 | 824.83 ± 0.47 | 820.15 ± 0.48 | 815.4 ± 0.48 | 810.59 ± 0.49 | 805.73 ± 0.5
x1 = 0.7493 | 826.32 ± 0.48 | 821.78 ± 0.48 | 817.17 ± 0.49 | 812.5 ± 0.5 | 807.75 ± 0.5 | 802.95 ± 0.51
x1 = 0.802 | 822.97 ± 0.49 | 818.51 ± 0.5 | 814 ± 0.5 | 809.41 ± 0.51 | 804.74 ± 0.52 | 800.01 ± 0.52
x1 = 0.8501 | 819.96 ± 0.51 | 815.6 ± 0.51 | 811.17 ± 0.52 | 806.66 ± 0.52 | 802.07 ± 0.53 | 797.4 ± 0.53
x1 = 0.9003 | 816.84 ± 0.52 | 812.58 ± 0.53 | 808.25 ± 0.53 | 803.84 ± 0.54 | 799.34 ± 0.54 | 794.77 ± 0.55
x1 = 0.9206 | 815.57 ± 0.53 | 811.36 ± 0.53 | 807.07 ± 0.54 | 802.7 ± 0.54 | 798.25 ± 0.55 | 793.72 ± 0.55
x1 = 0.9479 | 813.92 ± 0.53 | 809.76 ± 0.54 | 804.85 ± 0.55 | 801.21 ± 0.55 | 796.18 ± 0.56 | 791.73 ± 0.56
x1 = 1 | 810.64 ± 0.55 | 806.59 ± 0.56 | 802.47 ± 0.56 | 798.27 ± 0.57 | 793.97 ± 0.57 | 789.59 ± 0.58

ClC(Cl)Cl [trichloromethane] + CCC(C)O
mass density [kg/m3]
Conditions | 288.15 K | 293.15 K | 298.15 K | 303.15 K | 308.15 K | 313.15 K
x2 = 0 | 1498.08 ± 0.92 | 1488.64 ± 0.91 | 1479.15 ± 0.89 | 1469.61 ± 0.88 | 1460.03 ± 0.86 | 1450.41 ± 0.85
x2 = 0.0514 | 1455.49 ± 0.88 | 1446.33 ± 0.86 | 1437.12 ± 0.85 | 1427.86 ± 0.83 | 1418.55 ± 0.82 | 1409.22 ± 0.8
x2 = 0.1045 | 1413.17 ± 0.82 | 1404.26 ± 0.8 | 1395.31 ± 0.79 | 1386.31 ± 0.77 | 1377.26 ± 0.76 | 1368.2 ± 0.75
x2 = 0.1518 | 1376.62 ± 0.77 | 1367.94 ± 0.75 | 1359.22 ± 0.74 | 1350.44 ± 0.72 | 1341.17 ± 0.71 | 1332.78 ± 0.7
x2 = 0.1962 | 1342.92 ± 0.72 | 1334.49 ± 0.71 | 1326.01 ± 0.69 | 1317.48 ± 0.68 | 1308.89 ± 0.67 | 1300.27 ± 0.65
x2 = 0.2512 | 1302.06 ± 0.67 | 1293.92 ± 0.65 | 1285.73 ± 0.64 | 1277.49 ± 0.63 | 1269.19 ± 0.61 | 1260.86 ± 0.6
x2 = 0.2998 | 1266.64 ± 0.62 | 1258.77 ± 0.61 | 1250.84 ± 0.59 | 1242.86 ± 0.58 | 1234.82 ± 0.57 | 1226.74 ± 0.55
x2 = 0.3507 | 1230.33 ± 0.57 | 1222.74 ± 0.56 | 1215.09 ± 0.55 | 1207.39 ± 0.53 | 1199.64 ± 0.52 | 1191.86 ± 0.51
x2 = 0.3995 | 1196.11 ± 0.53 | 1188.78 ± 0.51 | 1181.4 ± 0.5 | 1173.96 ± 0.49 | 1166.47 ± 0.48 | 1158.94 ± 0.46
x2 = 0.4502 | 1161.11 ± 0.48 | 1154.06 ± 0.47 | 1146.95 ± 0.46 | 1139.78 ± 0.44 | 1132.56 ± 0.43 | 1125.28 ± 0.42
x2 = 0.4978 | 1128.73 ± 0.44 | 1121.94 ± 0.42 | 1115.08 ± 0.41 | 1108.17 ± 0.4 | 1101.2 ± 0.39 | 1094.2 ± 0.38
x2 = 0.546 | 1096.47 ± 0.39 | 1089.93 ± 0.38 | 1083.34 ± 0.37 | 1076.68 ± 0.36 | 1069.96 ± 0.35 | 1063.21 ± 0.34
x2 = 0.6008 | 1060.39 ± 0.35 | 1054.14 ± 0.34 | 1047.83 ± 0.33 | 1041.47 ± 0.31 | 1035.03 ± 0.3 | 1028.55 ± 0.29
x2 = 0.6498 | 1028.63 ± 0.31 | 1022.64 ± 0.3 | 1016.59 ± 0.29 | 1010.48 ± 0.27 | 1004.3 ± 0.26 | 998.07 ± 0.26
x2 = 0.7008 | 995.87 ± 0.27 | 990.15 ± 0.28 | 984.37 ± 0.29 | 978.52 ± 0.29 | 972.61 ± 0.3 | 966.65 ± 0.31
x2 = 0.7446 | 968.17 ± 0.32 | 962.68 ± 0.32 | 957.13 ± 0.33 | 951.51 ± 0.34 | 945.82 ± 0.34 | 940.07 ± 0.35
x2 = 0.7984 | 934.4 ± 0.37 | 929.2 ± 0.38 | 923.93 ± 0.38 | 918.6 ± 0.39 | 913.19 ± 0.39 | 907.74 ± 0.4
x2 = 0.8507 | 901.92 ± 0.42 | 897 ± 0.43 | 892.02 ± 0.43 | 886.97 ± 0.44 | 881.84 ± 0.44 | 876.65 ± 0.45
x2 = 0.9 | 871.62 ± 0.47 | 866.99 ± 0.47 | 862.29 ± 0.48 | 857.51 ± 0.48 | 852.65 ± 0.49 | 847.72 ± 0.5
x2 = 0.9486 | 841.91 ± 0.51 | 837.56 ± 0.52 | 833.14 ± 0.52 | 828.64 ± 0.53 | 824.05 ± 0.54 | 819.39 ± 0.54
